# Where two headings read alike, the source gives them in different places.
# Tests used:
# Format in all cases: in vivo
# slugs [1] = assay: Field comparison of baits (grass/clover), Table VII; details: first 4 days of trial; bait 10 % ai, 2.5 % sucrose (PP pellets 6 % ai, Draza pellets 4 % ai)
# From the text: In Table VII there is presented a comparison of the efficacy of present iron and aluminium chelates with metaldehyde and methiocarb under field conditions (grass/clover).
# Deroceras reticulatum = assay: Bait bioassay with increasing concentrations in standard bait (Examples 19-35); details: for Kill: 4 days
# Protocol: Test compounds were incorporated into a standard wheat-flour-based edible carrier containing 10% paraffin wax binder and 2.5% sucrose phagostimulant, in increasing concentrations 0, 1, 4, 7, 10, 13 and 16% a.i.
# Groups of ten field-collected D. reticulatum in the weight range 400-600 mg were confined with 0.5 g DM test bait at each concentration for a period of 4 days under a regime of 12 h dark @ 5°C and 12 light @ 15°C. Weight of bait eaten and number of slugs killed were recorded. Each group of compounds was tested against a concurrently run Al(ac.ac)₃ standard bait.
# In Examples 23 to 35, where six groups of ten slugs are offered bait containing 1,4,7,10,13 or 16% a.i., have been reduced to two values, (i), the total amount of a.i. ingested (mg) which gives an indication of the palatability of the compound, and (ii), the total number of slugs killed (x/60) which, with (i), gives an indication of its relative toxicity.
# [2] = tested on: grey field slugs, Deroceras reticulatum; assay: Contact with treated soil surface; details: mean of all tests
# Protocol: (§1) All laboratory tests were made with field-collected grey field slugs, Deroceras reticulatum (Pulmonata, Limacidae) and also with Arion hortensis in the weight range 0.4-0.6g. They were held in polythene bowls on wet filter paper in a controlled environment cabinet cycling 12 hours light at 15°C and 12 hours dark at 5°C. Voluntary feeding tests were made under these conditions but all other laboratory bioassays were carried out at 10°C constant temperature with an overnight pre-treatment period also at 10°C.
# Groups of ten slugs were held in plastic seed trays, 20 x 34 cm x 5 cm deep, filled to a depth of 1 cm with standard soil, a sandy clay loam from Rothamsted Farm, with a pH in water of 5.2, previously oven-dried, sieved (2 mm mesh), and rewetted to field capacity in the trays. Test chemicals were mixed with 5g dry soil, ground together and sprinkled on to the wet soil surface. Slugs were confined to the treated surface by a 16 v pulsed DC electric fence attached to the tray sides. Trays were covered to maintain a high Relative Humidity and food was provided. Dead slugs were removed daily and the final mortality count made after 10 days.
# slugs [3] = assay: Laboratory test, standard baits containing 1% metal ion, no alternative food (Example 17); details: 3 replicates of 10 slugs; standard bait containing 1% metal ion
# Protocol: as §1
# Laboratory tests where 3 replicates of 10 slugs were confined with standard baits containing 1% metal ion in different compounds, and no alternative food supplied, gave the following results: Aluminium sulphate (Al₂(SO₄)₃): 0/10, 0/10, 0/10 killed Aluminium acetylacetonate: 10/10, 10/10, 10/10 killed (Ex 17)
# [4] = tested on: grey field slugs, Deroceras reticulatum; assay: Contact with coated glass plate; details: for LC₅₀ On glass (50 min)., Mean: mean of all tests
# Protocol: as §1
# Groups of ten slugs were placed foot-down on sheets of glass, 10 cm x 10 cm, previously coated with an aqueous solution of suspension of test chemical and air dried to leave a deposit of known weight per unit area. Slugs were confined to a treated area for a period of 50 minutes at 10°C on plates with increasing surface loadings, then removed and held in wet filter paper-floored petri dishes with food. The number of dead slugs after seven days was recorded and the values used to calculate median lethal surface concentrations ('LC₅₀') for each compound by probit analysis.
# [5] = tested on: grey field slugs, Deroceras reticulatum; assay: Stomach poison action, voluntary feeding (wheatmeal bait)
# Protocol: as §1
# Test chemicals were offered to slugs at a range of concentrations in a wheat-meal based formulation, groups of ten slugs being confined in 15 cm crystallising dishes containing only wet filter paper and a solid watch glass filled with 3 g (dry weight) of test bait for four 24-hour cycles […]
compound,measurement,setting,value
CC1OC(C)OC(C)OC(C)O1 (centres unmarked) [Metaldehyde],Total Slugs 'Dead' or 'Immobilised' (Cumulative) Total D+I,slugs [1],461
"CCC(=O)C=C(C)[O][Al]([O]C(C)=CC(=O)CC)[O]C(C)=CC(=O)CC [Example 20, Tris (2,4-hexanedionato) Al III]",Kill,Deroceras reticulatum; 1 % a.i. in standard bait,1 x/10
same,Kill,Deroceras reticulatum; 4 % a.i. in standard bait,0 x/10
same,Kill,Deroceras reticulatum; 7 % a.i. in standard bait,4 x/10
same,Kill,Deroceras reticulatum; 10 % a.i. in standard bait,1 x/10
same,Kill,Deroceras reticulatum; 13 % a.i. in standard bait,5 x/10
same,Kill,Deroceras reticulatum; 16 % a.i. in standard bait,5 x/10
"Tris (1-dimethoxy-2, 4-pentanedionato) Al III [Example 29]",Slugs dead,"Deroceras reticulatum; total over six groups of ten slugs offered bait containing 1,4,7,10,13 or 16% a.i.",14 x/10
"CCC(=O)C=C(CC)[O][Al]([O]C(=CC(=O)CC)CC)[O]C(=CC(=O)CC)CC [Example 21, Tris (3,5-heptanedionato) Al III]",Kill,Deroceras reticulatum; 1 % a.i. in standard bait,1 x/10
same,Kill,Deroceras reticulatum; 4 % a.i. in standard bait,3 x/10
same,Kill,Deroceras reticulatum; 7 % a.i. in standard bait,0 x/10
same,Kill,Deroceras reticulatum; 10 % a.i. in standard bait,1 x/10
same,Kill,Deroceras reticulatum; 13 % a.i. in standard bait,1 x/10
same,Kill,Deroceras reticulatum; 16 % a.i. in standard bait,2 x/10
Aluminium sulphate [reference compound],"LC₅₀ On soil (10 days), Mean",[2],207.4 µg metal/cm²
same,killed,slugs [3],0/10
same,LC₅₀ values on glass,[4],around 20 µg metal cm⁻²
same,"LC₅₀ On glass (50 min)., Mean",[4],20.9 µg metal cm⁻²
same,Mortality after 7 days,[5]; 0.01 % Al in wheatmeal bait,1 x/10
same,Mortality after 7 days,[5]; 0.03 % Al in wheatmeal bait,2 x/10
same,Mortality after 7 days,[5]; 0.1 % Al in wheatmeal bait,3 x/10
same,Mortality after 7 days,[5]; 0.3 % Al in wheatmeal bait,3 x/10
same,Mortality after 7 days,[5]; 1.0 % Al in wheatmeal bait,5 x/10
same,Mortality after 7 days,[5]; 3.0 % Al in wheatmeal bait,2 x/10
"CC(=O)C=C(C)[O][Al]([O]C(C)=CC(C)=O)[O]C(C)=CC(C)=O [Example 19, Tris (2,4-pentanedionato) Al III]",Kill,Deroceras reticulatum; 1 % a.i. in standard bait,0 x/10
same,Kill,Deroceras reticulatum; 4 % a.i. in standard bait,0 x/10
same,Kill,Deroceras reticulatum; 7 % a.i. in standard bait,6 x/10
same,Kill,Deroceras reticulatum; 10 % a.i. in standard bait,7 x/10
same,Kill,Deroceras reticulatum; 13 % a.i. in standard bait,8 x/10
same,Kill,Deroceras reticulatum; 16 % a.i. in standard bait,8 x/10
same,"LC₅₀ On soil (10 days), Mean",[2],34.1 µg metal/cm²
same,killed,slugs [3],10/10
same,LC₅₀ On glass (50 min).,"[4]; individual tests, 50 min contact at 10°C, dead after seven days, bracketed values estimated, listed as Al^III acetylacetonate",(10-100)(Example 1) µg metal cm²
same,"LC₅₀ On glass (50 min)., Mean",[4],(< 100) µg metal cm²
same,mortality at 0.01 %,"[5]; Deroceras reticulatum, po, 168 h, 0.01 % Al in wheatmeal bait, read-out: Mortality after 7 days",10%
same,mortality at 0.03 %,"[5]; Deroceras reticulatum, po, 168 h, 0.03 % Al in wheatmeal bait, read-out: Mortality after 7 days",10%
same,mortality at 0.1 %,"[5]; Deroceras reticulatum, po, 168 h, 0.1 % Al in wheatmeal bait, read-out: Mortality after 7 days",20%
same,mortality at 0.3 %,"[5]; Deroceras reticulatum, po, 168 h, 0.3 % Al in wheatmeal bait, read-out: Mortality after 7 days",40%
same,mortality at 1 %,"[5]; Deroceras reticulatum, po, 168 h, 1.0 % Al in wheatmeal bait, read-out: Mortality after 7 days",100%
same,mortality at 3 %,"[5]; Deroceras reticulatum, po, 168 h, 3.0 % Al in wheatmeal bait, read-out: Mortality after 7 days",100%
same,mortality at 0.1 %,"[5]; Deroceras reticulatum, po, 216 h, 0.1 % Metal in wheatmeal bait (Table III), read-out: Mortality after 9 days",40%
same,mortality at 0.5 %,"[5]; Deroceras reticulatum, po, 216 h, 0.5 % Metal in wheatmeal bait (Table III), read-out: Mortality after 9 days",80%
same,mortality at 1 %,"[5]; Deroceras reticulatum, po, 216 h, 1.0 % Metal in wheatmeal bait (Table III), read-out: Mortality after 9 days",80%
same,mortality at 5 %,"[5]; Deroceras reticulatum, po, 216 h, 5.0 % Metal in wheatmeal bait (Table III), read-out: Mortality after 9 days",80%
same,mortality at 10 %,"[5]; Deroceras reticulatum, po, 216 h, 10.0 % Metal in wheatmeal bait (Table III), read-out: Mortality after 9 days",80%
same,mortality at 1 %,"[5]; Deroceras reticulatum, po, at 1 per cent Aluminium content, non-choice test (Table II), read-out: mortality",100%
CNC(=O)Oc1cc(C)c(SC)c(C)c1 [Methiocarb],Total Slugs 'Dead' or 'Immobilised' (Cumulative) Total D+I,slugs [1],557
